From US20230027361A1, “METTL3 MODULATORS” (priority 2019, published 2023)
Like-named read-outs stand apart in the source and are kept apart here.

How the values were obtained:
METTL16 = target: T1, METTL16 (Homo sapiens, UniProt Q86W50); assay: METTL16 Assay (METTL16 biochemical assay); details: read-out: METTL16 IC50
T1 sequence (Q86W50 1-562): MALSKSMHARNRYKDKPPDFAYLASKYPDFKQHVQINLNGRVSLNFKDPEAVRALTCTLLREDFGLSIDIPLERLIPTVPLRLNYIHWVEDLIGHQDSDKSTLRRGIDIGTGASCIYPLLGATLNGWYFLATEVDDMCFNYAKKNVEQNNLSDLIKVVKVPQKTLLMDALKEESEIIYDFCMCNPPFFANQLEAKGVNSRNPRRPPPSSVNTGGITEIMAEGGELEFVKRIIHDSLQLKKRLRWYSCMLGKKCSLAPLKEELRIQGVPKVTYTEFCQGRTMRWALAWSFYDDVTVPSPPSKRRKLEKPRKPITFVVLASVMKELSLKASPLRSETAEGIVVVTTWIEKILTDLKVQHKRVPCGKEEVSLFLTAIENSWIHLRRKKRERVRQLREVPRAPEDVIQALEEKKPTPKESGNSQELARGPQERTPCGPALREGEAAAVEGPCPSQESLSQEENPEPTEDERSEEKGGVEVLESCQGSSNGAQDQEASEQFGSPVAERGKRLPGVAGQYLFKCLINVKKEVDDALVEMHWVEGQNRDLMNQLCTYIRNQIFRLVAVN
Procedure: Assays were performed in a 25 μl-volume in 384-well V-bottom polypropylene microplates (Greiner Bio-One, cat. No. 781280) at ambient temperature. Optimized 1× assay buffer was 20 mM HEPES pH 7.5, 50 mM KCl, 1 mM DTT, 0.01% Tween, 0.01% BSG, 0.004 U/μl RNAseOUT (cat. No. 10777019, ThermoFisher Scientific, Waltham, Mass.). For compound screening METTL16 (final concentration, f.c.=100 nM) was added using a Multidrop Combi (ThermoFisher Scientific, Waltham, Mass.) and preincubated for 5 min. Reactions were started by adding 3′ biotinylated RNA ([…]-biotin) (f.c.=50 nM), 3H-SAM (f.c.=200 nM) and non-radiolabeled SAM (f.c.=800 nM) substrates. Reactions proceeded for 20 minutes and were quenched with excess non-radioactive SAM (f.c.=100 μM). The reactions were then transferred to streptavidin-coated flashplates and incubated for 2 hours at 25° C. Following two washing cycles with 0.1% Tween-20, the plates were sealed and read on a TopCount (PerkinElmer, Waltham, Mass.) plate-based scintillation counter. For determination of kinetic parameters, reaction times were optimized so that measurements were taken during the initial velocity phase of the reaction.

PRMT5-MEP50 = PRMT5-MEP50 (Homo sapiens, UniProt O14744); assay: PRMT5 Assay (PRMT5 biochemical assay)
Chain of PRMT5-MEP50 (O14744 whole entry): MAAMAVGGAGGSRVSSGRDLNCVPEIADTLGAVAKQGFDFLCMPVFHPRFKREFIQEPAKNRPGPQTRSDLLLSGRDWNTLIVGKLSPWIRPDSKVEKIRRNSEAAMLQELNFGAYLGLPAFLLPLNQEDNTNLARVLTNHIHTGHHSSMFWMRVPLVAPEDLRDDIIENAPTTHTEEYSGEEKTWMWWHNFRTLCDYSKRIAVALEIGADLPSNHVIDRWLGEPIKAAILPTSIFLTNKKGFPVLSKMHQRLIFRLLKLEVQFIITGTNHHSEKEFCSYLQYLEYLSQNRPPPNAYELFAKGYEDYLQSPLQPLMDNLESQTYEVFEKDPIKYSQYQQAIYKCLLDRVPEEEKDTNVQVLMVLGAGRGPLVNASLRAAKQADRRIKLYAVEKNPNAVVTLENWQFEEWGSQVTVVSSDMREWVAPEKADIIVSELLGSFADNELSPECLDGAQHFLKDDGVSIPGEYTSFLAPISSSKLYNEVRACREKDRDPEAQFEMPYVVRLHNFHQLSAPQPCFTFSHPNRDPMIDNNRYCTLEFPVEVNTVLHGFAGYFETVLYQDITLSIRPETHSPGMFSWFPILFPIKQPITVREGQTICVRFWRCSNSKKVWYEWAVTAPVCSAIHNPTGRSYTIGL
Chain of PRMT5-MEP50 (Q9BQA1 whole entry partner): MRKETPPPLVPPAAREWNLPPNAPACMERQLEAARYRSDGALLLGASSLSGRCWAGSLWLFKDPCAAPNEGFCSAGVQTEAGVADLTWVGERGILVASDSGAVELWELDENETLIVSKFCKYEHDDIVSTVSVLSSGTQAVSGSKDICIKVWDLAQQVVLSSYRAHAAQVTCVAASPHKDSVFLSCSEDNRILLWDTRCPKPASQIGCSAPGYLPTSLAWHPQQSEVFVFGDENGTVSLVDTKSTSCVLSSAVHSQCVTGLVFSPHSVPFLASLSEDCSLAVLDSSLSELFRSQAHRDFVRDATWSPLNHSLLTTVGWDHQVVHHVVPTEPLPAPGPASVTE
In short: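 Radiometric methyltransferase read-out: after 60 min reaction, excess unlabelled SAM (15 μM) stops turnover and biotinylated H4 peptide (100 nM) carrying 3H-methyl from 250 nM 3H-SAM is captured on streptavidin flashplates (2 h, 25° C) for scintillation counting. Enzyme, 2.5 nM PRMT5-MEP50, was preincubated 5 min with compound in pH 8.0 Tris buffer with DTT and Tween.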

METTL3/METTL14 = METTL3/METTL14 (Homo sapiens, UniProt Q86U44); assay: METTL3-14 Standard Enzyme Assay (METTL3 biochemical assay)
Chain of METTL3/METTL14 (Q86U44 whole entry, species assumed): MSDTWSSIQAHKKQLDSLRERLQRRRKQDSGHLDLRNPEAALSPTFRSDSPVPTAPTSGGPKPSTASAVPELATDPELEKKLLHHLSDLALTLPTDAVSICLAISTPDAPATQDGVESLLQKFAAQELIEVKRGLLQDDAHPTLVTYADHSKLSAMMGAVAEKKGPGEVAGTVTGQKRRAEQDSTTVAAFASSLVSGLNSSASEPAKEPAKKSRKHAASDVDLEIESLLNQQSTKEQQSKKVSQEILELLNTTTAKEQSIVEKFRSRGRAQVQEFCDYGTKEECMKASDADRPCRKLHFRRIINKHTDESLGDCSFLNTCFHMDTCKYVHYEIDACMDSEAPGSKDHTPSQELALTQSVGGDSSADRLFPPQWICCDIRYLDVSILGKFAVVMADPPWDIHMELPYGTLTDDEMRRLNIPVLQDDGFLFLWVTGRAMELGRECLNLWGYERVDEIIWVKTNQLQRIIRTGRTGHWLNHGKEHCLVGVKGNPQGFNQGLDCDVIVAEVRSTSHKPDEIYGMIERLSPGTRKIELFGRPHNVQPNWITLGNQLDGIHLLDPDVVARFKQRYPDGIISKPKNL
Chain of METTL3/METTL14 (Q9HCE5 whole entry partner, species assumed): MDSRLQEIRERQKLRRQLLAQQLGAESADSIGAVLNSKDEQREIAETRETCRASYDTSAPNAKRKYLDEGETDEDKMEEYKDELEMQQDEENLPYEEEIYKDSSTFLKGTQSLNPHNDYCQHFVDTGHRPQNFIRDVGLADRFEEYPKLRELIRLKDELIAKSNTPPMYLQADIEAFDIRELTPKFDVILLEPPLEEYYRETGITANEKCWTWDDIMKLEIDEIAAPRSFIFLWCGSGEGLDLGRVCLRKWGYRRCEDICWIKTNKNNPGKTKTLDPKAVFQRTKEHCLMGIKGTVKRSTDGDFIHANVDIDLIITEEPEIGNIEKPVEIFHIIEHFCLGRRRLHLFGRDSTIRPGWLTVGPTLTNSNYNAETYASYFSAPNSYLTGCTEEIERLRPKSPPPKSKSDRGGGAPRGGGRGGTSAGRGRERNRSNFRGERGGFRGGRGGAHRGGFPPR
In short: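 Tritium transfer from ³H-SAM (100 nM) to biotinylated RNA (100 nM) captured on streptavidin flashplates and counted by scintillation. Enzyme complex (2.5 nM) with compound, 5 min preincubation, 30 min reaction at ambient temperature, HEPES pH 7.5 buffer, stopped by excess unlabeled SAM.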

METTL1/WDR4 = METTL1/WDR4 (Homo sapiens, UniProt Q9UBP6); assay: METTL1 Assay (METTL1 biochemical assay)
Chain of METTL1/WDR4 (Q9UBP6 whole entry, species assumed): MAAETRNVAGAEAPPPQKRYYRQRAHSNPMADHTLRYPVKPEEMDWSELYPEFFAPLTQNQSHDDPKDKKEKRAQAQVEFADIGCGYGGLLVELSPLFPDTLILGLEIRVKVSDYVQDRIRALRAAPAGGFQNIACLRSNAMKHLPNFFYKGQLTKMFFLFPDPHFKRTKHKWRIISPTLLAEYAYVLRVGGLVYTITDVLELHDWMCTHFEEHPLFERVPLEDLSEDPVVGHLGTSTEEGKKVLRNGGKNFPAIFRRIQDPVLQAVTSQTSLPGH
Chain of METTL1/WDR4 (P57081 whole entry partner, species assumed): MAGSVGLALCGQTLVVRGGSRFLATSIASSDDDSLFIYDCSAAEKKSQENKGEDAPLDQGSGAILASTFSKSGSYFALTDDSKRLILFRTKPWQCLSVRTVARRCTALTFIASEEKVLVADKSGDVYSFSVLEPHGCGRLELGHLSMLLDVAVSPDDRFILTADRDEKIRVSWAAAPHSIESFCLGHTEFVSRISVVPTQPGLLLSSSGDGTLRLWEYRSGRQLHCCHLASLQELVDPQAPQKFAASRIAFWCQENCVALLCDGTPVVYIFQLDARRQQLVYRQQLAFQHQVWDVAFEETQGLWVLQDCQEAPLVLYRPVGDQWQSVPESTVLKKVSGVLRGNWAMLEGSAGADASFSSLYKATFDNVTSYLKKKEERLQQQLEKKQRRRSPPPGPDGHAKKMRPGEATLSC
In short: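 Radiometric methyltransfer by METTL1/WDR4 (6.25 nM f.c., 5 min preincubation) at ambient temperature in HEPES pH 7.5, KCl, MgCl2, DTT; started with 25 nM 3′-biotinylated RNA and 60 nM 3H-SAM, run 20 min, quenched with 15 μM cold SAM. Product captured on streptavidin flashplates (2 h, 25° C), counted by scintillation.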

MOLM-13 cells [1] = assay: MOLM-13 48 Hour Cell Proliferation Assay; format: cell-based; details: Homo sapiens
Procedure: MOLM-13 (DSMZ) cells were seeded at 1000 cells per well in a volume of 44 μL in a Falcon 384-well tissue culture treated clear bottom microplate in RPMI 1640 media containing 10% fetal bovine serum using a Multidrop Combi (ThermoFisher Scientific). Cells were incubated overnight at 37° C. in a humidified tissue culture incubator. The Mosquito® HTS Liquid Handler was used to make a compound/media intermediate plate by aliquoting 1 μL of compound from the initial compound dilution plate (concentrations ranging from 10.0 mM to 38.0 nM in 100% DMSO) into a V bottom 384-well screen matrix plate containing 49 μL of media containing the appropriate serum (50-fold dilution, 2% DMSO). The Apricot liquid handling system was used to transfer 6.2 μL compounds from the intermediate plate into the Falcon 384-well tissue culture plate containing 44 μL cells (10-point, 4-fold dilution spanning concentrations 25.0 μM to […], 0.25% DMSO final), and placed in a humidified tissue culture incubator at 37° C. After 48 hours, 25 μL of Cell Titer-Glo reagent (Promega) was added to each well using a Multidrop Combi. The plate was protected from light and placed on an IKA plate shaker for at 300 rpm for 10 minutes at room temperature. The plate was read on an EnVision plate reader (Perkin Elmer) using the Ultra Sensitive Luminescence protocol. Data analysis was performed by normalizing the raw luminescence units to an average of the positive control values for staurosporine (100% cell death) and the negative control values for DMSO (0% cell death). An IC50 was calculated using a 4-parameter logistic nonlinear regression model in GraphPad Prism.

MOLM-13 cells [2] = assay: MOLM-13 96 Hour Cell Proliferation Assay; format: cell-based; details: Homo sapiens
Procedure: MOLM-13 (DSMZ) cells were seeded at 600 cells per well in a volume of 44 μL in a Greiner Bio-One CELLSTAR™ 384 Well Polystyrene Cell Culture clear bottom microplate in RPMI 1640 media containing 10% fetal bovine serum using a Multidrop Combi (ThermoFisher Scientific). Cells were incubated overnight at 37° C. in a humidified tissue culture incubator. To prevent evaporation or to reduce edge effect, add 50 μL or more H2O to an empty plate, cover, and place on top of the cell plates. The Mosquito® HTS Liquid Handler was used to make a compound/media intermediate plate by aliquoting 1 μL of compound from the initial compound dilution plate (concentrations ranging from 10.0 mM to 38.0 nM in 100% DMSO) into Bio-One 384-well polypropylene conical bottom microplate containing 49 μL of media containing the appropriate serum (50-fold dilution, 2% DMSO, compound concentrations ranging from 200.0 μM and […]). The Apricot liquid handling system was used to transfer 6.2 μL compounds from the intermediate plate into the seeding plate containing 44 μL cells (8-fold dilution spanning concentrations 25.0 μM to […], 0.25% DMSO final), and placed in a humidified tissue culture incubator at 37° C. After 96 hours, 25 μL of Cell Titer-Glo reagent (Promega) was added to each well using an Integra liquid handling system. The plate was protected from light using TopSeal-A (Black) film over the entire plate, added White Bottom seal film on the bottom of the entire plate for a better reading on the Envision, and placed on an IKA plate shaker for at 300 rpm for 10 minutes at room temperature. The plate was read on an EnVision plate reader (Perkin Elmer) using the Ultra Sensitive Luminescence protocol. Data analysis was performed by normalizing the raw luminescence units to an average of the positive control values for staurosporine (100% cell death) and the negative control values for DMSO (0% cell death). An IC50 was calculated using a 4-parameter logistic nonlinear regression model in GraphPad Prism.

[3] = read-out: PRMT5 IC50, PRMT5 biochemical assay
[4] = read-out: METTL3 IC50, METTL3 biochemical assay
[5] = PRMT5 biochemical assay, read-out: PRMT5 IC50
[6] = METTL3 biochemical assay, read-out: METTL3 IC50
[7] = read-out: METTL1 IC50; METTL1 biochemical assay

Row | SMILES | IC50 (METTL16) | IC50 (PRMT5-MEP50; [5]) | IC50 (METTL3/METTL14; [6]) | IC50 (METTL1/WDR4; [7]) | other results
1 | CNc1ccc2ccc(OC[C@H]3O[C@@H](n4cc(-c5cnn(C)c5)c5c(N)ncnc54)[C@@H](F)[C@@H]3O)cc2n1 [I-11] | > 1 µM |  |  |  | IC50 (PRMT5-MEP50; [3]): 0.1 to 1 µM; IC50 (METTL3/METTL14; [4]): 0.01 to 0.1 µM
2 | Nc1cc(C2CC2)nc2cc(OC[C@H]3O[C@@H](n4cc(Br)c5c(N)ncnc54)[C@@H](F)[C@@H]3O)ccc12 [I-14] | > 1 µM | 0.1 to 1 µM | 0.01 to 0.1 µM |  | 
3 | Cc1cc(N)c2ccc(OC[C@H]3O[C@@H](n4cc(C5CCCC5)c5c(N)ncnc54)[C@H](O)[C@@H]3O)cc2n1 [I-16] | > 1 µM | 0.01 to 0.1 µM | 0.01 to 0.1 µM |  | 
4 | CNc1ccc2ccc(OC[C@H]3O[C@@H](n4cc(C5CCN(C)C5)c5c(N)ncnc54)[C@@H](F)[C@@H]3O)cc2n1 (stereo partly drawn) [I-17] | > 1 µM | 0.1 to 1 µM | 0.01 to 0.1 µM |  | 
5 | CCc1cc(N)c2ccc(OC[C@H]3O[C@@H](n4cc(Br)c5c(N)ncnc54)[C@@H](F)[C@@H]3O)cc2n1 [I-18] | > 1 µM | 0.1 to 1 µM | 0.01 to 0.1 µM |  | 
6 | Nc1nc2ccc(OC[C@H]3O[C@@H](n4cc(Br)c5c(N)ncnc54)[C@@H](F)[C@@H]3O)cc2[nH]1 [I-21] | > 1 µM | 0.01 to 0.1 µM | 0.1 to 1 µM | > 1 µM | 
7 | CNc1ccc2ccc(OC[C@H]3O[C@@H](n4cc(C5CCN(C)CC5)c5c(N)ncnc54)[C@@H](F)[C@@H]3O)cc2n1 [I-24] | > 1 µM | 0.1 to 1 µM | 0.01 to 0.1 µM | > 1 µM | 
8 | CNc1ccc2ccc(OC[C@H]3O[C@@H](n4cc(Br)c5c(N)nc(N)nc54)[C@@H](F)[C@@H]3O)cc2n1 [I-25] | > 1 µM | 0.01 to 0.1 µM | 0.1 to 1 µM | > 1 µM | 
9 | Cn1ccnc1-c1ccc2ccc(OC[C@H]3O[C@@H](n4cc(Br)c5c(N)ncnc54)[C@@H](F)[C@@H]3O)cc2n1 [I-26] | > 1 µM | 0.1 to 1 µM | > 1 µM | > 1 µM | 
10 | Cc1cc(N)c2ccc(OC[C@H]3O[C@@H](n4cc(Br)c5c(N)ncnc54)[C@@H](F)[C@@H]3O)cc2n1 [I-27] | > 1 µM | 0.1 to 1 µM | 0.01 to 0.1 µM |  | 
11 | CN(C)Cc1cccc(OC[C@H]2O[C@@H](n3cc(Br)c4c(N)ncnc43)[C@@H](F)[C@@H]2O)c1 [I-31] | > 1 µM | 0.1 to 1 µM | > 1 µM | > 1 µM | 
12 | CNc1ccc2ccc(OC[C@H]3O[C@@H](n4cc(C5=CCNC5)c5c(N)ncnc54)[C@@H](F)[C@@H]3O)cc2n1 [I-32] | > 1 µM | 0.1 to 1 µM | 0.01 to 0.1 µM | > 1 µM | 
13 | CNc1ccc2ccc(OC[C@H]3O[C@@H](n4cc(C5=CCN(C)CC5)c5c(N)ncnc54)[C@@H](F)[C@@H]3O)cc2n1 [I-35] | > 1 µM | 0.1 to 1 µM | 0.01 to 0.1 µM | > 1 µM | 
14 | CNc1ccc2ccc(OC[C@H]3O[C@@H](n4cc(-c5ccnn5C)c5c(N)ncnc54)[C@@H](F)[C@@H]3O)cc2n1 [I-37] | > 1 µM |  |  |  | IC50 (PRMT5-MEP50; [3]): 0.1 to 1 µM; IC50 (METTL3/METTL14; [4]): 0.01 to 0.1 µM; IC50 (METTL1/WDR4; METTL1 biochemical assay; read-out: METTL1 IC50): > 1 µM
15 | Nc1ccc2ccc(CC[C@H]3C[C@@H](n4cc(C5CCCC5)c5c(N)ncnc54)[C@H](O)[C@@H]3O)cc2n1 [I-60] |  | < 0.01 µM | 0.01 to 0.1 µM | > 1 µM | IC50 (MOLM-13 cells [1]): 1 to 10 µM; IC50 (MOLM-13 cells [2]; MOLM-13, 96 h): < 1 µM
16 | CCNc1ccc2ccc(OC[C@H]3C[C@@H](n4ccc5c(N)ncnc54)[C@H](O)[C@@H]3O)cc2n1 [I-81] | > 1 µM | < 0.01 µM | 0.01 to 0.1 µM |  | 
17 | CCNc1ccc2ccc(CC[C@H]3O[C@@H](n4ccc5c(N)ncnc54)[C@H](O)[C@@H]3O)cc2n1 [I-90] | > 1 µM | < 0.01 µM | 0.01 to 0.1 µM |  | 
18 | CNc1ccc2ccc(CC[C@H]3C[C@@H](n4ccc5c(N)ncnc54)[C@H](O)[C@@H]3O)cc2n1 [I-123] |  | < 0.01 µM | < 0.01 µM | > 1 µM | IC50 (MOLM-13 cells [1]): > 10 µM; IC50 (MOLM-13 cells [2]; MOLM-13, 96 h): < 1 µM
19 | Nc1ncnc2c1ccn2[C@H]1C[C@H](O)[C@@H](COc2ccc3ccc(NC4CC4)nc3c2)O1 [I-180] |  | 0.1 to 1 µM | 0.01 to 0.1 µM |  | IC50 (MOLM-13 cells [1]): > 10 µM; IC50 (MOLM-13 cells [2]; MOLM-13, 96 h): > 10 µM
20 | Cn1ccc(-c2cn([C@@H]3O[C@H](COc4ccc5ccc(N6CC(N)C6)nc5c4)[C@@H](O)[C@@H]3F)c3ncnc(N)c23)n1 [I-181] |  |  |  |  | IC50 (MOLM-13 cells [1]): < 1 µM; IC50 (MOLM-13 cells [2]): < 1 µM; IC50 (PRMT5-MEP50): > 1 µM; IC50 (METTL3/METTL14): < 0.01 µM
21 | Nc1ncnc2c1c(-n1ccc(C(F)(F)F)n1)cn2[C@@H]1O[C@H](COc2ccc3ccc(N4CCC4)nc3c2)[C@@H](O)[C@@H]1F [I-221] |  |  |  |  | IC50 (MOLM-13 cells [1]): 1 to 10 µM; IC50 (MOLM-13 cells [2]): 1 to 10 µM; IC50 (PRMT5-MEP50): > 1 µM; IC50 (METTL3/METTL14): < 0.01 µM
